According to patent US10597388B2, “Pyridazinone herbicides” (FMC CORPORATION, priority 2014, dated 2020):

Assays:
Assay type in all cases: in vivo
kochia (Kochia scoparia) = assay: Test C greenhouse herbicide test, postemergence
Method in brief: (§1)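 Test chemicals were applied postemergence to greenhouse plants at the 1- to 4-leaf stage (2–18 cm tall) growing in peat/vermiculite medium. After 13–15 d, injury was rated visually against untreated controls on a 0–100 scale (0 = no effect, 100 = complete control).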

[1] = test system: oat, wild (wild oat, Avena fatua); assay: Test C greenhouse herbicide test, postemergence
Method in brief: as §1

[2] = test system: blackgrass (Alopecurus myosuroides); assay: Test C greenhouse herbicide test, pre- and postemergence
Method in brief: (§2)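 Greenhouse pots; pre-em on seeded loam:sand blend, post-em on 2–18 cm plants (1–4 leaf) in sphagnum peat/vermiculite medium. Formulation: non-phytotoxic solvent + surfactant. Read-out: visual % control (0–100) vs controls at 13–15 d.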

[3] = test system: waterhemp (common waterhemp, Amaranthus rudis); assay: as above
Method in brief: as §2

soybean (Glycine max) = assay: as above
Method in brief: as §2

[4] = test system: pigweed (Amaranthus retroflexus); assay: as above
Method in brief: as §2

[5] = test system: velvetleaf (Abutilon theophrasti); assay: as above
Method in brief: as §2

[6] = test system: ragweed (common ragweed, Ambrosia elatior); assay: as above
Method in brief: as §2

[7] = test system: oilseed rape (Brassica napus); assay: as above
Method in brief: as §2

[8] = test system: ryegrass, Italian (Italian ryegrass, Lolium multiflorum); assay: as above
Method in brief: as §2

[9] = test system: lambsquarters (Chenopodium album); assay: as above
Method in brief: as §2

corn (Zea mays) = assay: as above
Method in brief: as §2

[10] = test system: crabgrass, large (large crabgrass, Digitaria sanguinalis); assay: as above
Method in brief: as §2

[11] = test system: johnsongrass (Sorghum halepense); assay: as above
Method in brief: as §2

[12] = test system: foxtail, giant (giant foxtail, Setaria faberii); assay: as above
Method in brief: as §2

[13] = test system: morningglory (Ipomoea coccinea); assay: as above
Method in brief: as §2

[14] = Postemergence, 31 g ai/ha, 0 to 100 scale (0 no effect, 100 complete control)
[15] = Postemergence, 125 g ai/ha, scale 0 to 100, 0 is no effect, 100 is complete control
[16] = Postemergence, 250 g ai/ha, scale 0 to 100, 0 no effect, 100 complete control, 13 to 15 d
[17] = postemergence, 62 g ai/ha, scale 0 to 100, 0 no effect, 100 complete control
[18] = Preemergence, 31 g ai/ha, scale 0 to 100, 0 is no effect, 100 is complete control
[19] = Preemergence, 62 g ai/ha, scale 0 to 100, 0 is no effect, 100 is complete control
[20] = Preemergence, 125 g ai/ha, scale 0 to 100, 0 is no effect, 100 is complete control
[21] = Preemergence, 250 g ai/ha, scale 0 to 100 (0 no effect, 100 complete control)

Cc1cc(C)c2sc(C)c(-c3c(OC(=O)OC(C)C)c(C)nn(C)c3=O)c2c1 [Compound 67]
Kochia plant response rating (kochia (Kochia scoparia); [14]): 0
Plant response rating, Kochia (kochia (Kochia scoparia); [15]): 35
Plant response rating, Kochia (kochia (Kochia scoparia); [16]): 80
Kochia plant response rating (kochia (Kochia scoparia); [17]): 30
Oat, Wild plant response rating [1, 14]: 80
Plant response rating, Oat, Wild [1, 15]: 90
Plant response rating, Oat, Wild [1, 16]: 100
Oat, Wild plant response rating [1, 17]: 85
Blackgrass plant response rating [2, 14]: 40
Plant response rating, Blackgrass [2, 15]: 65
Plant response rating, Blackgrass [2, 16]: 80
Plant response rating, Blackgrass [2, 18]: 60
Plant response rating, Blackgrass [2, 19]: 30
Plant response rating, Blackgrass [2, 20]: 40
Blackgrass plant response rating [2, 21]: 60
Blackgrass plant response rating [2, 17]: 60
Waterhemp plant response rating [3, 14]: 60
Plant response rating, Waterhemp [3, 15]: 75
Plant response rating, Waterhemp [3, 16]: 70
Plant response rating, Waterhemp [3, 18]: 70
Plant response rating, Waterhemp [3, 19]: 80
Plant response rating, Waterhemp [3, 20]: 65
Waterhemp plant response rating [3, 21]: 85
Waterhemp plant response rating [3, 17]: 70
Soybean plant response rating (soybean (Glycine max); [14]): 5
Plant response rating, Soybean (soybean (Glycine max); [15]): 5
Plant response rating, Soybean (soybean (Glycine max); [16]): 10
Plant response rating, Soybean (soybean (Glycine max); [18]): 0
Plant response rating, Soybean (soybean (Glycine max); [19]): 0
Plant response rating, Soybean (soybean (Glycine max); [20]): 0
Soybean plant response rating (soybean (Glycine max); [21]): 0
Soybean plant response rating (soybean (Glycine max); [17]): 5
Pigweed plant response rating [4, 14]: 100
Plant response rating, Pigweed [4, 15]: 80
Plant response rating, Pigweed [4, 16]: 85
Plant response rating, Pigweed [4, 18]: 75
Plant response rating, Pigweed [4, 19]: 90
Plant response rating, Pigweed [4, 20]: 95
Pigweed plant response rating [4, 21]: 100
Pigweed plant response rating [4, 17]: 85
Velvetleaf plant response rating [5, 14]: 70
Plant response rating, Velvetleaf [5, 15]: 85
Plant response rating, Velvetleaf [5, 16]: 98
Plant response rating, Velvetleaf [5, 18]: 10
Plant response rating, Velvetleaf [5, 19]: 35
Plant response rating, Velvetleaf [5, 20]: 60
Velvetleaf plant response rating [5, 21]: 75
Velvetleaf plant response rating [5, 17]: 85
Ragweed plant response rating [6, 14]: 70
Plant response rating, Ragweed [6, 15]: 98
Plant response rating, Ragweed [6, 16]: 95
Plant response rating, Ragweed [6, 18]: 60
Plant response rating, Ragweed [6, 19]: 85
Plant response rating, Ragweed [6, 20]: 100
Ragweed plant response rating [6, 21]: 98
Ragweed plant response rating [6, 17]: 75
Oilseed Rape plant response rating [7, 14]: 40
Plant response rating, Oilseed Rape [7, 15]: 75
Plant response rating, Oilseed Rape [7, 16]: 75
Plant response rating, Oilseed Rape [7, 18]: 0
Plant response rating, Oilseed Rape [7, 19]: 0
Plant response rating, Oilseed Rape [7, 20]: 0
Oilseed Rape plant response rating [7, 21]: 20
Oilseed Rape plant response rating [7, 17]: 50
Ryegrass, Italian plant response rating [8, 14]: 80
Plant response rating, Ryegrass, Italian [8, 15]: 85
Plant response rating, Ryegrass, Italian [8, 16]: 85
Plant response rating, Ryegrass, Italian [8, 18]: 30
Plant response rating, Ryegrass, Italian [8, 19]: 40
Plant response rating, Ryegrass, Italian [8, 20]: 85
Ryegrass, Italian plant response rating [8, 21]: 90
Ryegrass, Italian plant response rating [8, 17]: 80
Lambsquarters plant response rating [9, 14]: 85
Plant response rating, Lambsquarters [9, 15]: 90
Plant response rating, Lambsquarters [9, 16]: 100
Plant response rating, Lambsquarters [9, 18]: 80
Plant response rating, Lambsquarters [9, 19]: 80
Plant response rating, Lambsquarters [9, 20]: 85
Lambsquarters plant response rating [9, 21]: 85
Lambsquarters plant response rating [9, 17]: 95
Corn plant response rating (corn (Zea mays); [14]): 5
Plant response rating, Corn (corn (Zea mays); [15]): 10
Plant response rating, Corn (corn (Zea mays); [16]): 20
Plant response rating, Corn (corn (Zea mays); [18]): 0
Plant response rating, Corn (corn (Zea mays); [19]): 0
Plant response rating, Corn (corn (Zea mays); [20]): 0
Corn plant response rating (corn (Zea mays); [21]): 0
Corn plant response rating (corn (Zea mays); [17]): 5
Crabgrass, Large plant response rating [10, 14]: 35
Plant response rating, Crabgrass, Large [10, 15]: 35
Plant response rating, Crabgrass, Large [10, 16]: 40
Plant response rating, Crabgrass, Large [10, 18]: 10
Plant response rating, Crabgrass, Large [10, 19]: 70
Plant response rating, Crabgrass, Large [10, 20]: 10
Crabgrass, Large plant response rating [10, 21]: 65
Crabgrass, Large plant response rating [10, 17]: 35
Johnsongrass plant response rating [11, 14]: 5
Plant response rating, Johnsongrass [11, 15]: 5
Plant response rating, Johnsongrass [11, 16]: 10
Plant response rating, Johnsongrass [11, 18]: 10
Plant response rating, Johnsongrass [11, 19]: 20
Plant response rating, Johnsongrass [11, 20]: 10
Johnsongrass plant response rating [11, 21]: 30
Johnsongrass plant response rating [11, 17]: 5
Foxtail, Giant plant response rating [12, 14]: 70
Plant response rating, Foxtail, Giant [12, 15]: 80
Plant response rating, Foxtail, Giant [12, 16]: 85
Plant response rating, Foxtail, Giant [12, 18]: 75
Plant response rating, Foxtail, Giant [12, 19]: 80
Plant response rating, Foxtail, Giant [12, 20]: 98
Foxtail, Giant plant response rating [12, 21]: 100
Foxtail, Giant plant response rating [12, 17]: 75
Morningglory plant response rating [13, 14]: 95
Plant response rating, Morningglory [13, 15]: 100
Plant response rating, Morningglory [13, 16]: 100
Plant response rating, Morningglory [13, 18]: 70
Plant response rating, Morningglory [13, 19]: 80
Plant response rating, Morningglory [13, 20]: 80
Morningglory plant response rating [13, 21]: 90
Morningglory plant response rating [13, 17]: 95
